For this assay, the target named is T1, 14-3-3γ (Homo sapiens, UniProt P61981).
T1 construct: made in house; host or cells: E. coli NiCo21 (DE3)
T1 sequence (P61981 1-247): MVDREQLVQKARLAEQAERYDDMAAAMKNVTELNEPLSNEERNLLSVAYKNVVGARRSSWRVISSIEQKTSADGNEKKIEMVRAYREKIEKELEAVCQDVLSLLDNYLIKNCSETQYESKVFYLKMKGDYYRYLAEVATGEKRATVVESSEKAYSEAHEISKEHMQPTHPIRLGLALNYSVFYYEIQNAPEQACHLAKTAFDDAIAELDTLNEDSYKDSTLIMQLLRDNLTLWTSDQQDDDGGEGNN
As to the kind of experiment: Fluorescence anisotropy (FA) binary binding study: 14-3-3 titrated to fluorescein-labelled peptide. Particulars: for individual ΔΔG of removed residue / ΔΔG (to previous): FA; for individual ΔΔG of removed residue: ΔG relative to the previously truncated peptide; for fold change in binding affinity on truncation: FA KD relative to the previous (one amino acid longer) peptide. Here is the method:
14-3-3γ protein expression (FP/ITC experiments)
(§1) A pPROEX HTb expression vector encoding the human 14-3-3 protein gamma (14-3-3γ) with an N-terminal his6-tag was transformed by heat shock into NiCo21 (DE3) competent cells. Single colonies were cultured in 50 mL LB medium (100 µg/mL ampicillin). After overnight incubation at 37 °C, cultures were transferred to 2 L TB media (100 µg/mL ampicillin, 1 mM MgCl2) and incubated at 37 °C until an OD600 nm of 0.8-1.2 was reached. Protein expression was then induced with 0.4 mM isopropyl-β-d-thiogalactoside (IPTG), and cultures were incubated overnight at 18 °C. Cells were harvested by centrifugation (8600 rpm, 20 minutes, 4 °C) and resuspended in lysis buffer (50 mM Hepes, pH 8.0, 300 mM NaCl, 12.5 mM imidazole, 5 mM MgCl2, 2 mM βME) containing cOmplete™ EDTA-free Protease Inhibitor Cocktail tablets (1 tablet/100 ml lysate) and benzonase (1 µl/100 ml). After lysis using a C3 Emulsiflex-C3 homogenizer (Avestin), the cell lysate was cleared by centrifugation (20000 rpm, 30 minutes, 4 °C) and purified using Ni2+-affinity chromatography (Ni-NTA superflow cartridges, Qiagen).
Typically two 5 mL columns (flow 5 mL/min) were used for a 2 L culture in which the lysate was loaded on the column washed with 10 CV wash buffer (50 mM Hepes, pH 8.0, 300 mM NaCl, 25 mM imidazole, 2 mM βME) and eluted in several fractions (2-4 CV) of elution buffer (50 mM Hepes, pH 8.0, 300 mM NaCl, 250 mM imidazole, 2 mM βME). Fractions containing the 14-3-3 protein were combined and dialyzed into 25 mM HEPES pH 8.0, 100 mM NaCl, 10 mM MgCl2, 500 µM TCEP. Finally, the protein was concentrated to ∼60 mg/mL, analyzed Q-Tof LC/MS, and aliquots were flash-frozen for storage at […]
as §1, with “sigma truncated after T231 (14-3-3σΔc) and” for “gamma (14-3-3γ)”, “tablet/ 100” for “tablet/100”, “µl/ 100” for “µl/100”, “ml).” for “ml). After lysis using a C3 Emulsiflex-C3 homogenizer (Avestin), the cell lysate was cleared by centrifugation (20000 rpm, 30 minutes, 4 °C) and purified using Ni2+-affinity chromatography (Ni-NTA superflow cartridges, Qiagen).”
After lysis using a C3 Emulsiflex-C3 homogenizer (Avestin), the cell lysate was cleared by centrifugation (20000 rpm, 30 minutes, 4 °C) and purified using Ni2+-affinity chromatography (Ni-NTA superflow cartridges, Qiagen). Typically two 5 mL columns were used for a 2 L culture in which the lysate was loaded on the column washed with 10 CV wash buffer (50 mM Hepes, pH 8.0, 300 mM NaCl, 25 mM imidazole, 2 mM βME) and eluted with several fractions (2-4 CV) of elution buffer (50 mM Hepes, pH 8.0, 300 mM NaCl, 250 mM imidazole, 2 mM βME). Fractions containing the 14-3-3 protein were combined and dialyzed into 25 mM HEPES pH 8.0, 200 mM NaCl, 10 mM MgCl2, 2 mM βME. In addition, 1 mg TEV was added for each 100 mg purified protein to remove the purification tag. The cleaved sample was then again loaded on a 10 mL Ni-NTA column to separate the cleaved product from the expression tag and residual uncleaved protein. The flowthrough was loaded on a Superdex 75 pg 16/60 size exclusion column (GE Life Sciences) using 25 mM HEPES, 100 mM NaCl, 10 mM MgCl2, 500 μM TCEP (adjusted to pH=8.0) as running buffer. Fractions containing the 14-3-3 protein were pooled and concentrated to ∼60 mg/mL, analyzed Q-Tof LC/MS, and aliquots were flash-frozen for storage at −80 […]
The peptides 1 and 2a-d were synthesized on 50 µmol scale on a Rink amide MBHA resin […]
A general note: Polarisation of emitted light reports the rotation of a fluorescent probe.

The mark [1] stands for this setting: Table S2, FA KD of peptide divided by KD of previous (one amino acid longer) peptide, mean of n = 3.
Where [2] appears, read: Table S2, KD / KD of previous (one amino acid longer) peptide, replicate 1.
The mark [3] stands for this setting: Table S2, KD / KD of previous (one amino acid longer) peptide, replicate 2.
Setting [4] is: Table S2, KD / KD of previous (one amino acid longer) peptide, replicate 3.
Setting [5] is: Table S2, calculated from FA KD, mean of n = 3.
[6] abbreviates: Table S2, from FA KD, replicate 1.
Setting [7] is: Table S2, from FA KD, replicate 2.
Setting [8] is: Table S2, from FA KD, replicate 3.
Setting [9] is: Table S2, ΔG minus ΔG of previous peptide, replicate 1.
Where [10] appears, read: Table S2, ΔG minus ΔG of previous peptide, replicate 2.
Setting [11] is: Table S2, ΔG minus ΔG of previous peptide, replicate 3.
The mark [12] stands for this setting: Table S2, ΔG of peptide minus ΔG of previous (one amino acid longer) peptide, mean of n = 3.
Where [13] appears, read: Table S3, FA KD of peptide divided by KD of previous (one amino acid longer) peptide, mean of n = 3.
Where [14] appears, read: Table S3, KD / KD of previous peptide, replicate 1.
The mark [15] stands for this setting: Table S3, KD / KD of previous peptide, replicate 2.
Where [16] appears, read: Table S3, KD / KD of previous peptide, replicate 3.
The mark [17] stands for this setting: Table S3, calculated from FA KD, mean of n = 3.
Setting [18] is: Table S3, from FA KD, replicate 1.
The mark [19] stands for this setting: Table S3, from FA KD, replicate 2.
Setting [20] is: Table S3, from FA KD, replicate 3.
Setting [21] is: Table S3, ΔG minus ΔG of previous peptide, replicate 1.
[22] abbreviates: Table S3, ΔG minus ΔG of previous peptide, replicate 2.
Setting [23] is: Table S3, ΔG minus ΔG of previous peptide, replicate 3.
[24] abbreviates: Table S3, ΔG of peptide minus ΔG of previous (one amino acid longer) peptide, mean of n = 3.

Where a SMILES comes first, the peptide text is derived from it. [ ]: non-standard residue; d: D form. The star is where a group is joined. ξ: configuration not given here. FITC = O=C1OC2(c3ccc(O)cc3Oc3cc(O)ccc32)c2ccc(NC(=S)*)cc21; Phe(4-NO2) = N[C@@H](Cc1ccc([N+](=O)[O-])cc1)C(=O)O; ξAla(4-thiazolyl) = NC(Cc1cscn1)C(=O)O; pS = N[C@@H](COP(=O)(O)O)C(=O)O; β3hS = N[C@@H](CO)CC(=O)O; Nva = CCC[C@H](N)C(=O)O; AEA = NCCOCC(=O)O; βAla = NCCC(=O)O

As to `CCC[C@H](N)C(=O)N[C@@H](Cc1ccc([N+](=O)[O-])cc1)C(=O)NC(Cc1cscn1)C(=O)N[C@@H](COP(=O)(O)O)C(=O)N[C@@H](Cc1ccc([N+](=O)[O-])cc1)C(=O)N[C@@H](CO)CC(=O)NCCC(=O)N[C@@H](Cc1ccc([N+](=O)[O-])cc1)C(=O)N[C@@H](CCCCN)C(=O)N[C@@H](C)C(=O)N[C@@H](CCCCNC(=S)Nc1ccc2c(c1)C(=O)OC21c2ccc(O)cc2Oc2cc(O)ccc21)C(N)=O` (stereo partly drawn) [2a] (H-[Nva][Phe(4-NO2)][ξAla(4-thiazolyl)][pS][Phe(4-NO2)][β3hS][βAla][Phe(4-NO2)]KAK(FITC)-NH2), the “individual ΔΔG of removed residue” value is “only minor energy contributions”. Moreover, the “Fold change to previous” value under setting [1] is on record as 1,98. In addition, under setting [2], the “Fold change to previous” value was 1,72. Further, the “Fold change to previous” value under setting [3] is listed as 2,56. In addition, the “Fold change to previous” value under setting [4] is recorded as 1,66. Moreover, the ΔG under setting [5] was -10,13 kcal/mol. For the same compound, the ΔG under setting [6] is listed as -10,29 kcal/mol. Also, the ΔG under setting [7] is -10,00 kcal/mol. Further, under setting [8], the ΔG is given as -10,11 kcal/mol. Moreover, under setting [9], the ΔΔG (to previous) is reported as 0,32 kcal/mol. Also, under setting [10], the ΔΔG (to previous) was 0,56 kcal/mol. Also, the ΔΔG (to previous) under setting [11] is reported as 0,30 kcal/mol. The ΔΔG (to previous) under setting [12] was 0,39 kcal/mol.
Regarding `C[C@H](NC(=O)[C@H](CCCCN)NC(=O)[C@H](Cc1ccc([N+](=O)[O-])cc1)NC(=O)CCNC(=O)C[C@H](CO)NC(=O)[C@H](Cc1ccc([N+](=O)[O-])cc1)NC(=O)[C@H](COP(=O)(O)O)NC(=O)C(Cc1cscn1)NC(=O)[C@@H](N)Cc1ccc([N+](=O)[O-])cc1)C(=O)N[C@@H](CCCCNC(=S)Nc1ccc2c(c1)C(=O)OC21c2ccc(O)cc2Oc2cc(O)ccc21)C(N)=O` (stereo partly drawn) [2b] (H-[Phe(4-NO2)][ξAla(4-thiazolyl)][pS][Phe(4-NO2)][β3hS][βAla][Phe(4-NO2)]KAK(FITC)-NH2), the “individual ΔΔG of removed residue” value is reported as “only minor energy contributions”. For the same compound, under setting [1], the “Fold change to previous” value was 2,86. The “Fold change to previous” value under setting [2] was 3,64. The “Fold change to previous” value under setting [3] is reported as 2,32. For the same compound, the “Fold change to previous” value under setting [4] was 2,61. For the same compound, under setting [5], the ΔG is recorded as -9,52 kcal/mol. Besides, the ΔG under setting [6] is -9,53 kcal/mol. Under setting [7], the ΔG was -9,50 kcal/mol. Moreover, the ΔG under setting [8] is -9,54 kcal/mol. Moreover, the ΔΔG (to previous) under setting [9] is recorded as 0,76 kcal/mol. Besides, the ΔΔG (to previous) under setting [10] was 0,50 kcal/mol. Further, the ΔΔG (to previous) under setting [11] is 0,57 kcal/mol. Moreover, under setting [12], the ΔΔG (to previous) is on record as 0,61 kcal/mol.
As to `CCC[C@H](NC(=O)[C@@H](CCCCN)NC(=O)COCCNC(=S)Nc1ccc2c(c1)C(=O)OC21c2ccc(O)cc2Oc2cc(O)ccc21)C(=O)N[C@@H](Cc1ccc([N+](=O)[O-])cc1)C(=O)NC(Cc1cscn1)C(=O)N[C@@H](COP(=O)(O)O)C(=O)N[C@@H](Cc1ccc([N+](=O)[O-])cc1)C(=O)N[C@@H](CO)CC(=O)NCCC(=O)N[C@@H](Cc1ccc([N+](=O)[O-])cc1)C(N)=O` (stereo partly drawn) [2e] ({FITC-AEA}-[dK][Nva][Phe(4-NO2)][ξAla(4-thiazolyl)][pS][Phe(4-NO2)][β3hS][βAla][Phe(4-NO2)]-NH2), the “fold change in binding affinity on truncation” value was “five-fold reduction”. In addition, under setting [13], the “Fold change to previous” value is 5,55. Besides, under setting [14], the “Fold change to previous” value was 5,54. Moreover, under setting [15], the “Fold change to previous” value is 7,13. Besides, the “Fold change to previous” value under setting [16] is listed as 3,98. Moreover, the ΔG under setting [17] is recorded as -9,53 kcal/mol. The ΔG under setting [18] was -9,60 kcal/mol. Under setting [19], the ΔG was -9,39 kcal/mol. The ΔG under setting [20] was -9,59 kcal/mol. In addition, the “ΔΔG (to previous)” value under setting [21] is recorded as 1,01 kcal/mol. Also, under setting [22], the “ΔΔG (to previous)” value was 1,16 kcal/mol. Besides, the “ΔΔG (to previous)” value under setting [23] is listed as 0,82 kcal/mol. The “ΔΔG (to previous)” value under setting [24] is recorded as 1,00 kcal/mol.
As to `CCC[C@H](NC(=O)[C@@H](CCCCN)NC(=O)COCCNC(=S)Nc1ccc2c(c1)C(=O)OC21c2ccc(O)cc2Oc2cc(O)ccc21)C(=O)N[C@@H](Cc1ccc([N+](=O)[O-])cc1)C(=O)NC(Cc1cscn1)C(=O)N[C@@H](COP(=O)(O)O)C(=O)N[C@@H](Cc1ccc([N+](=O)[O-])cc1)C(=O)N[C@@H](CO)CC(=O)NCCC(N)=O` (stereo partly drawn) [2f] ({FITC-AEA}-[dK][Nva][Phe(4-NO2)][ξAla(4-thiazolyl)][pS][Phe(4-NO2)][β3hS][βAla]-NH2), the “fold change in binding affinity on truncation” value was 12 fold and the “individual ΔΔG of removed residue” value was determined as 1.5 kcal/mol. The “Fold change to previous” value under setting [13] is 12,39. The “Fold change to previous” value under setting [14] is 12,69. For the same compound, the “Fold change to previous” value under setting [15] is 11,53. Also, the “Fold change to previous” value under setting [16] is reported as 12,93. In addition, the ΔG under setting [17] was -8,04 kcal/mol. For the same compound, the ΔG under setting [18] is recorded as -8,10 kcal/mol. The ΔG under setting [19] was -7,95 kcal/mol. Moreover, the ΔG under setting [20] is reported as -8,07 kcal/mol. Besides, the “ΔΔG (to previous)” value under setting [21] is 1,50 kcal/mol. The “ΔΔG (to previous)” value under setting [22] is 1,45 kcal/mol. Besides, the “ΔΔG (to previous)” value under setting [23] was 1,52 kcal/mol. Moreover, the “ΔΔG (to previous)” value under setting [24] is on record as 1,49 kcal/mol.

The values above are taken from PMC9667936, “Functional mapping of the 14-3-3 hub protein as a guide to design 14-3-3 molecular glues” (Chemical Science, 2022).
